Here are results for 1 molecule from US11427575B2, “Antitumor compound for activating JWA gene and degrading HER2, preparation method thereof, and application thereof” (SIMCERE PHARMACEUTICAL CO., LTD., priority 2019, dated 2022).

Series [1] relates to HER2 protein. The experiment in a line: Laser confocal immunofluorescence in HER2-positive breast cancer cells, HER2 level and localization. The class given is cell-based, human. The following applies: immunofluorescence, 0, 1, 10 μM, 24 h. The procedure: The cells were inoculated into a 35 mm glass bottom dish, treated with different concentrations (0, 1, and 10 μM) of JAC1 for 24 h, fixed with methanol for 15 min, washed three times with PBST, blocked with normal sheep serum for 1 h, and incubated in primary antibody overnight at 4° C. The cells were then washed three times with PBST, incubated in fluorescent secondary antibody and 4′,6-diamidino-2-phenylindole (DAPI), and photographed using a laser confocal scanning microscopy.

For series [2] the following is noted: H&E staining, tumor-bearing nude mice. From the text: A model of nude mice subcutaneously transplanted with human breast cancer cells was built with reference to the method of Example 16. The laboratory mice that have been modeled were anesthetized and euthanized to observe and determine whether damage occurred to the major organs of laboratory mice. The major organs tissues from the laboratory mice, such as heart, liver, spleen, lung, kidney, and brain, were fixed in formalin solution using conventional methods. After paraffin embedding and tissue sectioning, the thick tissue sections were stained with H&E to observe whether the organ tissues were normal in morphology.

Series [3] concerns SKBR3 cells. The following applies: SKBR3, 1 and 10 μM, 10-15 d, vs control. The procedure:
(§1) Two human breast cancer cell lines BT474 and SKBR3 were incubated in DMEM medium containing, respectively, 20% and 10% fetal bovine serum (FBS), conventional double-antibody, and were placed in a 37° C. incubator with 5% CO2. The BT474 and SKBR3 cells in the logarithmic growth phase were transferred into 6-well plates for 800 cells per well. After the cells adhered to the walls of the plates, the cells were cultured in the medium containing different concentrations (0, 1, and 10 μM) of JAC1, respectively. By observing the formation of each cell colony, the cells were continued to be cultured for 10-15 d, followed by removal of medium. After fixation with methanol and photographing, the number of the cell colonies (each containing more than 50 cells) was counted using the software ImageJ, and the computer program SPSS is used for statistical analysis.

Series [4] has as its system BT474 cells. The following applies: BT474, 1 and 10 μM, 10-15 d, vs control. The procedure:
as §1

For series [5], the system named is HER2 protein. The series is described as follows: Western blot in HER2-positive breast cancer cells, HER2. Format: cell-based, human. The following applies: increasing concentration, 24 h. The procedure:
The cells in the logarithmic growth phase were routinely digested, and transferred into 6-well plates at the cell density of 40%-50%. The cells were incubated with different concentrations of JAC1 for 24 h, followed by an addition of 0.1 mL of Radioimmunoprecipitation Assay Butter (RIPA, containing 0.5% phenylmethylsulfonyl fluoride (PMSF)) for protein extraction. After centrifugation at 12,000×g for 15 min, the supernatant was collected, and brought to a determination of protein concentration and a boil. Protein electrophoresis was performed with 10% polyacrylamide gel. The protein was transferred into the gel wells for 40 μg protein per well, migrated at 60 V for 30 min, and 90 V for 1.5-2 h. After gel electrophoresis, the protein was transferred by wet method from gel to a PVDF membrane, and blocked with 5% skim milk at room temperature for 1-2 h. The membrane was washed with Tris-Buffered Saline and Tween 20 (TBST, containing 0.1% Tween 20) three times for 5 min each, and incubated in the corresponding primary antibody overnight at 4° C. The membrane was then washed with the TBST (containing 0.1% Tween 20) three times for 5 min each, incubated in the secondary antibody at room temperature for 1-2 h, and washed with the TBST (containing 0.1% Tween 20) eight times for 5 min each. […]

The test system of another series is JWA protein. The following applies: 10 μM, 48 h. From the text: A HER2-positive BGC823 human gastric cancer cell line was established in which JWA gene was deleted using Crisp/cas9 technology. […] After protein extraction, western blotting technology was used to determine the expression levels of JWA and HER2 proteins in the wild-type cell line (JWA WT) and the JWA-knockout cell line (JWA KO).

Series [6] concerns HER2 protein. The series is described as follows: Western blot of subcutaneous BT474 tumors, HER2. The class given is in vivo, BALB/c nude mice. The following applies: treatment group. The procedure: BT474 human breast cancer cells in the logarithmic growth phase were suspended in ice-cold suspension buffer for a final concentration of 5×10^6/100 μL, followed by subcutaneous transplantations of the suspended cells into BALB/c nude mice. When the tumor grown up to 75-125 mm^3, the BALB/c nude mice were randomly divided into five equal groups, including a blank control group (Mock), a solvent control group (Vehicle), a 50 mg/kg JAC1 treatment group, a 100 mg/kg JAC1 treatment group, and a positive control group treated with Pacilitaxel and Trastuzumab (TH). Dose and administration: JAC1 was injected intraperitoneally into mice once daily; the dosage of Trastuzumab was 10 mg/kg injected intraperitoneally twice a week; the dosage of Pacilitaxel was 20 mg/kg injected intraperitoneally once a week. From the day of administration, mouse body weights and tumor diameters were measured every other 2 days, and the tumor volume was calculated using an equation. When the mice reached a humane endpoint at which the tumor volume increased to 2500-3000 mm^3, the research based on the mouse models was terminated and the laboratory mice were anesthetized and euthanized in a timely manner to alleviate animal suffering and perform the statistical analysis. […]
Background: Immunoblotting shows a protein as a band on a membrane.

Series [7] has as its system SKBR3 cells. The following applies: SKBR3, Transwell, 0, 1, and 10 μL of JAC1, 12 h. How it is done: (§2) BT474 and SKBR3 cells in the logarithmic growth phase were transferred into six-well plates at the cell density of 40%-50%. After the cells adhered to the walls of the plates, the cells were respectively incubated in […] of JAC1. Spreading gel in Transwell chamber: the day before the assay, a 24-well plate and a plurality of Transwell chambers were prepared, and 1 mg/mL fibronectin (FN) mother liquor was diluted 10 times to a final concentration of 100 μg/mL. The bottom of each Transwell chamber was coated with 50 μL of FN, placed on a clean bench to air-dry for 2 h, and cultured in an incubator overnight.
(§3) On the day of the assay, the cultured cells were digested with 0.25% trypsin and resuspended in a serum-free medium in which the number of the cells were counted and the cell density was adjusted to 3×10^5 cells/mL. 100 μL of serum-free medium containing the cells was transferred onto the upper layer of each Transwell chamber, and 600 μL of mixture containing 10% FBS and 100 ng/mL EGF medium was added to the lower layer of each Transwell chamber. After incubation in an incubator for 12 h, the Transwell chambers were taken out, fixed with 95% methanol for 20 min, washed three times with phosphate-buffered saline (PBS), stained with crystal violet dye for 30 min, and washed three times with PBS. […]

The subject of series [8] is BT474 cells. The following applies: BT474, Transwell, 0, 1, and 10 μL of JAC1, 12 h. How it is done:
as §2, §3

With `COc1cccc2sc(Nc3nc4c(F)cccc4s3)nc12` [JAC1, 4-fluoro-N-(4-methoxybenzene (d)thiazole-2-group) benzene (d) thiazole-2-amine], the HER2 protein level result was “HER2 protein level reduced” with HER2 protein [1] and “HER2 protein level decreases” in the series on HER2 protein [5]. In addition, the “cellular localization of HER2 protein” value in the series on HER2 protein [1] is recorded as “no effect on the localization of HER2 protein in the cell membrane”. The “morphology of major organs (heart, liver, spleen, lung, kidney, brain)” value in series [2] is given as “no obvious anomalies were observed”. Moreover, the colony-forming ability entry in the series on SKBR3 cells [3] and with BT474 cells [4] was “significantly reduce the colony-forming ability” throughout. Further, the JWA expression level entry in the series on JWA protein (BGC823 JWA KO) is given as “no effect”. For the same molecule, in the series with JWA protein (BGC823 JWA WT), the JWA protein level result is listed as “significantly increase JWA protein level”. The “HER2 protein level in tumor” value with HER2 protein [6] is given as “repressed significantly”. Also, the migratory ability entry in the series on SKBR3 cells [7] and in the series with BT474 cells [8] was “effectively inhibit the migratory ability” in each case.
